The values that follow come from publication PMC10380726, “Cyanocobalamin-Modified Colistin–Hyaluronan Conjugates: Synthesis and Bioactivity” (International Journal of Molecular Sciences, 2023).

For data set [1], the system named is P. aeruginosa ATCC 27853. Put plainly: Antimicrobial activity, microtiter broth dilution method. In kind it is cell-based, Pseudomonas aeruginosa. As to conditions: 1 × 10^7 CFU/mL, Mueller–Hinton broth, 24 h at 37 °C, OD 630 nm, concentration equivalent to CT. The procedure:
The antimicrobial activity of HA–CT–B12 was tested using the microtiter broth dilution method, as previously reported. P. aeruginosa ATCC 27853 (Museum of Microbiological Cultures, State Research Institute of Highly Pure Biopreparations, St. Petersburg, Russia) was used as the experimental microorganism. Briefly, HA–CT–B12 conjugate stock solutions were prepared by diluting samples in Mueller–Hinton broth to a maximum 2-fold concentration equivalent to CT. Serial dilutions of CT (64 to 0.25 μg/mL) were then plated on Luria-Bertani agar culture plates. The antimicrobial efficacy of the HA–CT–B12 conjugates was confirmed by the absence of P. aeruginosa growth. P. aeruginosa suspension was serially diluted 1:100 in Müller–Hinton broth to obtain a concentration of approximately 1 × 10^7 CFU/mL. Then, 125 µL of the inoculum was added to the wells of the culture plate containing HA–CT–B12 solutions in Müller–Hinton broth. […] The plate was incubated for 24 h at 37 °C and the optical density (OD) was measured at 630 nm using an ELx808™ Absorbance Microplate Reader (BioTek Instruments, Winooski, VT, USA). Relative bacterial growth (%) was calculated as the ratio of OD630 at each concentration of the test samples to OD630 in the control (0 μg/mL). […]

Data set [2] has as its system Caco-2 cell monolayer. Put plainly: Caco-2 cell permeability assay. It is filed as in vitro ADME, human. The procedure:
The human colon adenocarcinoma cell line Caco-2 was obtained from the Russian Cell Culture Collection (Institute of Cytology, Russian Academy of Sciences, St. Petersburg, Russia). Caco-2 cells were cultured in DMEM medium supplemented with 10% FBS, L-glutamine, and penicillin/streptomycin in 75 cm^2 cell culture flasks (Jet Biofil, Guangzhou, China) at 37 °C in a humidified atmosphere containing 5% CO2 in a CO2 incubator. When the cells reached 60-70% confluence, the cells were sub-cultured into new flasks (1:6 ratio). […] Samples were collected from the bottom chamber and fluorescence intensity was measured using a fluorescence plate reader (excitation 492 nm; emission 520 nm). […] The content of vitamin B12 and the content of the HA-CT-B12 conjugate equivalent to vitamin B12 were determined spectrophotometrically at 360 nm using a calibration curve. […] The Papp was calculated using the following equation [33]:(1) […]0 where Papp is the apparent permeability coefficient (cm/s); dQ/dt -is the permeation rate (μg/s); A is the monolayer area (0.3 sm^2); and C0 is the concentration in the apical chamber at the initial moment of time (μg/mL).
In general terms: Caco-2 cells form a polarised layer with tight junctions and transporters.

For colistin [CT], the “Minimum inhibitory concentration (MIC)” value in data set [1] worked out at 2 µg/mL. In addition, the “Apparent permeability coefficient (Papp)” value in data set [2] (Caco-2) is 0.04 ×10⁻⁶ cm/s. For cyanocobalamin [vitamin B12], the “Apparent permeability coefficient (Papp)” value in data set [2] (Caco-2 monolayer, day 21, apical to basolateral, PBS, 2 h with sampling every 30 min, 1 mg CT, 28.5 mg vitamin B12 or 300 mg conjugate in 5 mL PBS, 0.5 mL applied, B12 and conjugate read at 360 nm, mean of n = 3) came out at 5.4 ×10⁻⁶ cm/s.
